Experimental findings from patent publication US10239869B2, “Sulfonamide compounds as voltage-gated sodium channel modulators” (LUPIN LIMITED, priority 2015, dated 2019) are described below.

One may read the IC50 as the concentration that inhibits the measured activity by half.

For one data set, the target named is Nav 1.7 (Homo sapiens (Human), UniProt Q15858). The experiment in a line: Inhibition of sodium channels, Red Membrane Potential Dye FLIPR assay, veratridine depolarization. The following applies: HEK-293 cells overexpressing the channel; for IC50: read-out: Nav1.7 IC50. The data set is classed as cell-based.
The next data set concerns the target Nav 1.5 (Homo sapiens (Human), UniProt Q14524). The data set is described as above. The data set is classed as cell-based. The following applies: HEK-293 cells overexpressing the channel.
Where [1] appears, read: read-out: Nav1.5 IC50 (bound given in μM).

Where two headings read alike, the source gives them in different places.

Sequence of Nav 1.5 (Q14524 whole entry): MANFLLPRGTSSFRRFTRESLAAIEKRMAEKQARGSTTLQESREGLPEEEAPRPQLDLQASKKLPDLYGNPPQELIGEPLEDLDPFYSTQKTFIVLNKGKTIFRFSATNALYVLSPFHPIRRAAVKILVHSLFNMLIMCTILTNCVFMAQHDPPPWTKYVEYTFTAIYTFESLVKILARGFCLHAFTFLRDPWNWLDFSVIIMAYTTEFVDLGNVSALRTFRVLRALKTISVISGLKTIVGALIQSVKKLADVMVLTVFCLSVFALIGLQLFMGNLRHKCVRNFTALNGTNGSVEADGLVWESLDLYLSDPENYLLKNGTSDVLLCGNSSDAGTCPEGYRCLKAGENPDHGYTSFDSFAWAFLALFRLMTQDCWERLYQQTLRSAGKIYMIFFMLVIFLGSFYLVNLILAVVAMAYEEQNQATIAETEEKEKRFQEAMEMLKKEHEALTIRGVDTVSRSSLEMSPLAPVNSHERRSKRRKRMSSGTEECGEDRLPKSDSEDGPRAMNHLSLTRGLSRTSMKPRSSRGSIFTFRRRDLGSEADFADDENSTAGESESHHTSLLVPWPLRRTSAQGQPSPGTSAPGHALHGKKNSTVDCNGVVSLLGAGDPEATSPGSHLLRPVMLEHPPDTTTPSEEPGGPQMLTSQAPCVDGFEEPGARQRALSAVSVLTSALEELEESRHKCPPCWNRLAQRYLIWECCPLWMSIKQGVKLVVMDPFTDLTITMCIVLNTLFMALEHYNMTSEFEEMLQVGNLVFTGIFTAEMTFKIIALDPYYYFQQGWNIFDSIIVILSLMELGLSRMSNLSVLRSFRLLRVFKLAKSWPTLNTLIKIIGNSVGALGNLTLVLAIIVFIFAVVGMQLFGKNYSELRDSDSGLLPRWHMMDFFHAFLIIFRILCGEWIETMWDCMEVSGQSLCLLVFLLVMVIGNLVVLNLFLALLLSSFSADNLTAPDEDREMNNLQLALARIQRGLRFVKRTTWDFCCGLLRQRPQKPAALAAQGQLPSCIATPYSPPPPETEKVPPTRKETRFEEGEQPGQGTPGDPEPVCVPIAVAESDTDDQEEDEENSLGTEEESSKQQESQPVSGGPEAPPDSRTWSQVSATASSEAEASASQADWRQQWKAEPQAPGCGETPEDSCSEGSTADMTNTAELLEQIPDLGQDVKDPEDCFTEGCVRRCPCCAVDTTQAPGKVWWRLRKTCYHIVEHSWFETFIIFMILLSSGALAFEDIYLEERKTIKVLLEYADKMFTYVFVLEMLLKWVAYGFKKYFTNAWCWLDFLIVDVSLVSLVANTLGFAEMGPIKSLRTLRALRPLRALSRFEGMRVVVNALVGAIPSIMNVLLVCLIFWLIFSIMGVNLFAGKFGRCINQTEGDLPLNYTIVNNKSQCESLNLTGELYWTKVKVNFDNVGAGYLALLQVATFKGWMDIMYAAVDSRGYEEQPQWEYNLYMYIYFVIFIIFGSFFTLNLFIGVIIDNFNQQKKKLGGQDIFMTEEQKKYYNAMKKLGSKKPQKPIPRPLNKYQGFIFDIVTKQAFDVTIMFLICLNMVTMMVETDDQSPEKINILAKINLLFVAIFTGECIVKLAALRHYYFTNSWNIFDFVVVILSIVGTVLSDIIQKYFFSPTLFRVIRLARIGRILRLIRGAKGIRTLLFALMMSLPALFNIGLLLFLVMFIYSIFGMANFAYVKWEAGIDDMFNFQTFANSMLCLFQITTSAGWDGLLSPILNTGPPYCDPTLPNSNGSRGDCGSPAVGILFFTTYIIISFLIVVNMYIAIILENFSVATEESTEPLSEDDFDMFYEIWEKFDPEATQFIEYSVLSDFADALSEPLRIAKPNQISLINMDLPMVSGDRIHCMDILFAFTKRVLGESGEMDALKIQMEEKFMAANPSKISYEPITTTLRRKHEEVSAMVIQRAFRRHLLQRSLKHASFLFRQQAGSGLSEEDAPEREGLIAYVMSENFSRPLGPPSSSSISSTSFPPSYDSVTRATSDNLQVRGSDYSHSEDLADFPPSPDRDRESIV
Sequence of Nav 1.7 (Q15858 whole entry): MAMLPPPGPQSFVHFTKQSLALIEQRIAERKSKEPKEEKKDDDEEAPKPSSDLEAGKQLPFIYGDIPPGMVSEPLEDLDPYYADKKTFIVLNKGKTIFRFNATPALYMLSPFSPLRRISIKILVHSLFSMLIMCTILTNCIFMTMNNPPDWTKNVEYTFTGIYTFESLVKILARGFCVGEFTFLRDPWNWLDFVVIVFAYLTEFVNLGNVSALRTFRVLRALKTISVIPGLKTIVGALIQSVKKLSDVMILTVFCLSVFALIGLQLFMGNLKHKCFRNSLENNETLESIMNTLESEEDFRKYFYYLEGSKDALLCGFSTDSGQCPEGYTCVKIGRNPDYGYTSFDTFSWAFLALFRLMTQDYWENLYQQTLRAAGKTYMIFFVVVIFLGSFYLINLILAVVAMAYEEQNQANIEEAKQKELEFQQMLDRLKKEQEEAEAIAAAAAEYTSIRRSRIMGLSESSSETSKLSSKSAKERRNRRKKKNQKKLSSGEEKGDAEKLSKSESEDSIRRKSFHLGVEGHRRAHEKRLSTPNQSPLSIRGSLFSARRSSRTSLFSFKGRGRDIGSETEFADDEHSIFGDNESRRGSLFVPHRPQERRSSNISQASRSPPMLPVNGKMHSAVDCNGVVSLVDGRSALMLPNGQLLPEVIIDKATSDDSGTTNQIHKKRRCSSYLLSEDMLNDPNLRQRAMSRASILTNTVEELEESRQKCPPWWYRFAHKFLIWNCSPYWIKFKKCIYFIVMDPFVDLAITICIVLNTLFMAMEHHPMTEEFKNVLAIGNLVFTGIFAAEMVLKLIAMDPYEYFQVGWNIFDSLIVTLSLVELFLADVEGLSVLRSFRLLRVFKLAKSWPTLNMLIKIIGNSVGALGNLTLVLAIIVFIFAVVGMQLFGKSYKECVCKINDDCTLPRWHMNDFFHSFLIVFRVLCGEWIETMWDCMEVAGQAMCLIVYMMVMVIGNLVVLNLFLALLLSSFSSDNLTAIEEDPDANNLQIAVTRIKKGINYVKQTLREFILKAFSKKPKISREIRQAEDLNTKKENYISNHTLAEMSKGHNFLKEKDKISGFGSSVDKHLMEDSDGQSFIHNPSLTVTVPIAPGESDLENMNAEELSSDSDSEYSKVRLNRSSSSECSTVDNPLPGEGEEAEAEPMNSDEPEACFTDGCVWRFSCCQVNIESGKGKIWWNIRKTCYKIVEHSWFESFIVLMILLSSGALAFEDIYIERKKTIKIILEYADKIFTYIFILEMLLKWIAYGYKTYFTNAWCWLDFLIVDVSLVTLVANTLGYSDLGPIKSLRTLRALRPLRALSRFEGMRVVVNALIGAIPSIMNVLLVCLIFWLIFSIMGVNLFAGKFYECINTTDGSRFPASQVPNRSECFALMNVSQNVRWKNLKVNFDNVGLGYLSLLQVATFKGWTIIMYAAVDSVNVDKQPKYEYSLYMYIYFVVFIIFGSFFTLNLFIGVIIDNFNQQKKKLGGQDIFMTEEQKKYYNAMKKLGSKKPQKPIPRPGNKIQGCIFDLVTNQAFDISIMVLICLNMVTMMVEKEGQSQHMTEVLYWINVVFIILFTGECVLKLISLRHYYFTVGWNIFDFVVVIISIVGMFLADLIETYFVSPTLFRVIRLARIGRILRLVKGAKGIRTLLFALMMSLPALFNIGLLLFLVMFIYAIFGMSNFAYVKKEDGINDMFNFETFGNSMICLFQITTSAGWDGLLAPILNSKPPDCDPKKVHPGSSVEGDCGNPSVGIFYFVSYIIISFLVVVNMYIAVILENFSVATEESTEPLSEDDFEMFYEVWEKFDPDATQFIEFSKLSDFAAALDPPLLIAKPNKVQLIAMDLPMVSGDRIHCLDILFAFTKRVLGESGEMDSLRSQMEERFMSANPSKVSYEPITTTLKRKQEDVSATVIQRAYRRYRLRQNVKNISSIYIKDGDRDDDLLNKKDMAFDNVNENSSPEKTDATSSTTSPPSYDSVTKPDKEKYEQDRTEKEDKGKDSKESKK

Take `CC(C)Oc1cccc(NS(=O)(=O)c2ccc3c(c2)OCC[C@@H]3c2ccc(C(F)(F)F)cc2-c2ccnn2C)n1` [Example 26, (S&R)—N-(6-isopropoxypyridin-2-yl)-4-(2-(1-methyl-1H-pyrazol-5-yl)-4-(trifluoromethyl)phenyl)chroman-7-sulfonamide]: the values for the IC50 at Nav 1.7 and on Nav 1.5 (setting [1]) were 0.685 µM and more than 10 µM, respectively.
On to `Cn1nccc1-c1cc(C(F)(F)F)ccc1[C@@H]1CCOc2cc(S(=O)(=O)Nc3cccnc3F)ccc21` [Example 27, (S&R)—N-(2-fluoropyridin-3-yl)-4-(2-(1-methyl-1H-pyrazol-5-yl)-4-(trifluoromethyl)phenyl)chroman-7-sulfonamide], for which the “Nav1.7 inhibition @ 10 μM” value at Nav 1.7 stood at 80%. In addition, the IC50 on Nav 1.5 (setting [1]) is more than 10 µM.
As for `Cn1nccc1-c1cc(C(F)(F)F)ccc1[C@H]1CCOc2cc(S(=O)(=O)Nc3cccnc3F)ccc21` [Example 28, (S&R)—N-(2-fluoropyridin-3-yl)-4-(2-(1-methyl-1H-pyrazol-5-yl)-4-(trifluoromethyl)phenyl)chroman-7-sulfonamide], the half-maximal inhibitory concentration (IC50) was 1.57 µM at Nav 1.7 and more than 10 µM on Nav 1.5 (setting [1]).
As for `Cc1ccnc(NS(=O)(=O)c2ccc3c(c2)OCC[C@H]3c2ccc(C(F)(F)F)cc2-c2ccnn2C)n1` [Example 29, (S&R)-4-(2-(1-methyl-1H-pyrazol-5-yl)-4-(trifluoromethyl)phenyl)-N-(4-methylpyrimidin-2-yl)chroman-7-sulfonamide], on Nav 1.7, the “Nav1.7 inhibition @ 10 μM” value turned out to be 91%. Also, the half-inhibitory concentration (IC50) on Nav 1.5 (setting [1]) was more than 10 µM.
In the same order, the values of `Cc1ccnc(NS(=O)(=O)c2ccc3c(c2)OCC[C@@H]3c2ccc(C(F)(F)F)cc2-c2ccnn2C)n1` [Example 30, (S&R)-4-(2-(1-methyl-1H-pyrazol-5-yl)-4-(trifluoromethyl)phenyl)-N-(4-methylpyrimidin-2-yl)chroman-7-sulfonamide] are 72% and more than 10 µM.
Regarding `Cn1nccc1-c1cc(Cl)ccc1[C@@H]1CCOc2cc(S(=O)(=O)Nc3cccc(F)n3)ccc21` [Example 31, (S&R)-4-(4-chloro-2-(1-methyl-1H-pyrazol-5-yl)phenyl)-N-(6-fluoropyridin-2-yl)chroman-7-sulfonamide], the IC50 at Nav 1.7 is 2.05 µM; at Nav 1.5 (setting [1]), more than 10 µM.
In the same order, the values of `Cn1nccc1-c1cc(Cl)ccc1[C@H]1CCOc2cc(S(=O)(=O)Nc3cccc(F)n3)ccc21` [Example 32, (S&R)-4-(4-chloro-2-(1-methyl-1H-pyrazol-5-yl)phenyl)-N-(6-fluoropyridin-2-yl)chroman-7-sulfonamide] are 0.151 µM and more than 10 µM.
For the molecule `CC(C)Oc1ccc([C@@H]2CCOc3cc(S(=O)(=O)Nc4cccc(F)n4)ccc32)c(-c2ccnn2C)c1` [Example 33, (S&R)—N-(6-fluoropyridin-2-yl)-4-(4-isopropoxy-2-(1-methyl-1H-pyrazol-5-yl)phenyl)chroman-7-sulfonamide], the IC50 was 0.514 µM at Nav 1.7 and more than 10 µM at Nav 1.5 (setting [1]).
On the same counts, the results for `CC(C)Oc1ccc([C@H]2CCOc3cc(S(=O)(=O)Nc4cccc(F)n4)ccc32)c(-c2ccnn2C)c1` [Example 34, (S&R)—N-(6-fluoropyridin-2-yl)-4-(4-isopropoxy-2-(1-methyl-1H-pyrazol-5-yl)phenyl)chroman-7-sulfonamide] are 0.057 µM and more than 10 µM.
On the same counts, the results for `O=S(=O)(Nc1cccnn1)c1ccc2c(c1)OCC[C@H]2c1ccc(C(F)(F)F)cc1-c1ccc(F)nc1` [Example 41, (S&R)-4-(2-(6-Fluoropyridin-3-yl)-4-(trifluoromethyl)phenyl)-N-(pyridazin-3-yl)chromane-7-sulfonamide] are 0.622 µM and more than 10 µM.
Turning to `O=S(=O)(Nc1cccnn1)c1ccc2c(c1)OCC[C@@H]2c1ccc(C(F)(F)F)cc1-c1ccc(F)nc1` [Example 42, (S&R)-4-(2-(6-Fluoropyridin-3-yl)-4-(trifluoromethyl)phenyl)-N-(pyridazin-3-yl)chromane-7-sulfonamide], the concentration for half-maximal inhibition (IC50) at Nav 1.7 stood at 0.0002 µM; on Nav 1.5 (read-out: Nav1.5 IC50) it was 0.644 µM.
As for `O=S(=O)(Nc1ccncn1)c1ccc2c(c1)OCC[C@H]2c1ccc(C(F)(F)F)cc1-c1ccc(F)cc1` [Example 47, (S&R)-4-(4′-Fluoro-5-(trifluoromethyl)-[1,1′-biphenyl]-2-yl)-N-(pyrimidin-4-yl)chromane-7-sulfonamide], at Nav 1.7, the “Nav1.7 inhibition @ 10 μM” value is listed as 64%. The IC50 on Nav 1.5 (setting [1]) was more than 10 µM.
In the case of `O=S(=O)(Nc1cccnn1)c1ccc2c(c1)OCCC2c1ccc(C(F)(F)F)cc1-n1ccnn1` (stereo not drawn) [Example 53, (S&R)-4-(2-(1H-1,2,3-Triazol-1-yl)-4-(trifluoromethyl)phenyl)-N-(pyridazin-3-yl)chromane-7-sulfonamide], the “Nav1.7 inhibition @ 10 μM” value on Nav 1.7 was 70%. In addition, the “Nav1.5 % inhibition @ 10 μM” value at Nav 1.5 was determined as 44%.
Take `O=S(=O)(Nc1cccnn1)c1ccc2c(c1)OCC[C@@H]2c1ccc(C(F)(F)F)cc1-n1ccnn1` [Example 54, (S&R)-4-(2-(1H-1,2,3-Triazol-1-yl)-4-(trifluoromethyl)phenyl)-N-(pyridazin-3-yl)chromane-7-sulfonamide]: the IC50 on Nav 1.7 was 0.706 µM; at Nav 1.5 (setting [1]) it was more than 10 µM.
In the case of `Cc1nc(-c2cc(C(F)(F)F)ccc2[C@@H]2CCOc3cc(S(=O)(=O)Nc4cccc(F)n4)ccc32)cs1` [Example 61], the IC50 on Nav 1.7 was 0.568 µM; at Nav 1.5 (setting [1]) it was more than 10 µM.
In the case of `Cc1nc(-c2cc(C(F)(F)F)ccc2[C@H]2CCOc3cc(S(=O)(=O)Nc4cccc(F)n4)ccc32)cs1` [Example 62], at Nav 1.7, the IC50 amounted to 0.005 µM. The “Nav1.5 % inhibition @ 10 μM” value at Nav 1.5 amounted to 42%.
As to `Cc1nc(-c2cc(C(F)(F)F)ccc2[C@@H]2CCOc3cc(S(=O)(=O)Nc4ncccn4)ccc32)cs1` [Example 63, (S&R)-4-(2-(2-Methylthiazol-4-yl)-4-(trifluoromethyl)phenyl)-N-(pyrimidin-2-yl)chroman-7-sulfonamide], the IC50 was 0.526 µM at Nav 1.7 and more than 10 µM at Nav 1.5 (setting [1]).
Turning to `Cc1nc(-c2cc(C(F)(F)F)ccc2[C@H]2CCOc3cc(S(=O)(=O)Nc4ncccn4)ccc32)cs1` [Example 64, (S&R)-4-(2-(2-Methylthiazol-4-yl)-4-(trifluoromethyl)phenyl)-N-(pyrimidin-2-yl)chroman-7-sulfonamide], the values for the half-maximal inhibitory concentration (IC50) on Nav 1.7 and on Nav 1.5 (setting [1]) were 0.003 µM and more than 10 µM, respectively.
In the same order, the values of `Cc1nc(-c2cc(C(F)(F)F)ccc2[C@@H]2CCOc3cc(S(=O)(=O)Nc4ccncn4)ccc32)cs1` [Example 67, (S&R)-4-(2-(2-Methylthiazol-4-yl)-4-(trifluoromethyl)phenyl)-N-(pyrimidin-4-yl)chroman-7-sulfonamide] are 0.03 µM and more than 10 µM.
`Cc1nc(-c2cc(C(F)(F)F)ccc2[C@H]2CCOc3cc(S(=O)(=O)Nc4ccncn4)ccc32)cs1` [Example 68, (S&R)-4-(2-(2-Methylthiazol-4-yl)-4-(trifluoromethyl)phenyl)-N-(pyrimidin-4-yl)chroman-7-sulfonamide]: the IC50 at Nav 1.7 was 0.0009 µM. The “Nav1.5 % inhibition @ 10 μM” value at Nav 1.5 is on record as 29%.
For `Cc1nc(-c2cc(C(F)(F)F)ccc2[C@H]2CCOc3cc(S(=O)(=O)Nc4cccnn4)ccc32)cs1` [Example 70, (S&R)-4-(2-(2-Methylthiazol-4-yl)-4-(trifluoromethyl)phenyl)-N-(pyridazin-3-yl)chroman-7-sulfonamide], the results for the IC50 on Nav 1.7 and on Nav 1.5 (setting [1]) were 0.115 µM and more than 10 µM, respectively.
